# Activity calls are given as the source filed them. The rule behind the calls is not given here.
# What was measured:
# [1] = biological target: Leucine-rich PPR motif-containing protein, mitochondrial (Homo sapiens) (UniProt P42704); experiment: Binding affinity to LRPPRC in human MDA-MB-231 cells at 20 uM incubated for 2 to 5 hrs by pull down based LC-MS analysis; assay type: cell-based; details: time 2-5 hrs
# MDA-MB-231 [2] = experiment: Induction of cell cycle arrest in human MDA-MB-231 cells assessed as accumulation of cells at G0/G1 phase at 0.156 uM incubated for 24 hrs by PI/RNase staining based flow cytometric analysis relative to control; assay type: functional
# [3] = test system: GTPase KRas (Homo sapiens), P01116 [G12C]; experiment: Binding affinity to N-terminal 6his/SUMO-tagged KRAS G12C mutant (unknown origin) expressed in Escherichia coli BL21 (DE3) cells at 10 uM incubated for 2 to 7 hrs by fluorescence based SDS-PAGE analysis; details: time 2-7 hrs
# MDA-MB-231 [4] = experiment: Induction of apoptosis in human MDA-MB-231 cells assessed as early apoptotic cells at 5 uM incubated for 48 hrs by Annexin V-FITC/PI staining based analysis (reference value: 1.98%); assay type: functional
# [5] = biological target: Alpha-enolase (Homo sapiens) (UniProt P06733); experiment: Binding affinity to recombinant ENO1 (unknown origin) at 10 uM by Western blot analysis
# MDA-MB-231 [6] = experiment: Induction of apoptosis in human MDA-MB-231 cells transfected with FABP5 siRNA assessed as viable cells at 5 uM incubated for 48 hrs by Annexin V-FITC/PI staining based analysis (reference value: 85.75%); assay type: functional; details: read-out: Activity
# [7] = biological target: T1, Peptidyl-prolyl cis-trans isomerase FKBP4 (Homo sapiens) (UniProt Q02790); experiment: Binding affinity to recombinant FKBP4 (unknown origin) at 10 uM by Western blot analysis
# T1 sequence (whole entry): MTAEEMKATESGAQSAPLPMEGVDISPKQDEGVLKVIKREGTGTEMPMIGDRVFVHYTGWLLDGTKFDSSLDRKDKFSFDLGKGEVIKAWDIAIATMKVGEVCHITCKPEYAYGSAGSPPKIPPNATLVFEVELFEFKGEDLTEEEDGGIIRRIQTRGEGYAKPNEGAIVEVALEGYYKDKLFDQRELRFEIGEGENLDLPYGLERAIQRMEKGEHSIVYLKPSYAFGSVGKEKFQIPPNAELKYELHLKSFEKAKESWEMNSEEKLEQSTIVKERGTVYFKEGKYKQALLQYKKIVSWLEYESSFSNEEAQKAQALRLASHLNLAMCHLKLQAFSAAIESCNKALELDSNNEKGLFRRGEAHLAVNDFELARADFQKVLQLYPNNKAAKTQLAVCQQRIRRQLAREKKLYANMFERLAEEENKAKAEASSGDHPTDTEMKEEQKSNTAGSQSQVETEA
# [8] = biological target: Fatty acid-binding protein 5 (Homo sapiens) (UniProt Q01469); experiment: Binding affinity to FABP5 in human MDA-MB-231 cells at 20 uM incubated for 2 to 5 hrs by pull down based LC-MS analysis; assay type: cell-based; details: time 2-5 hrs
# MDA-MB-231 [9] = experiment: Induction of apoptosis in human MDA-MB-231 cells assessed as viable cells at 5 uM incubated for 48 hrs by Annexin V-FITC/PI staining based analysis (reference value: 95.14%); assay type: functional; details: read-out: Activity
# [10] = Drug uptake in human MDA-MB-231 cells at 10 uM incubated for 5 hrs by imaging based microscopic analysis; assay type: ADME, cell-based; details: mda-mb-231, 5 h
# [11] = biological target: Glutathione S-transferase P (Homo sapiens, UniProt P09211); experiment: Binding affinity to GSTP1 in human MDA-MB-231 cells at 20 uM incubated for 2 to 5 hrs by pull down based LC-MS analysis; assay type: cell-based; details: time 2-5 hrs
# [12] = biological target: T2, Aldehyde dehydrogenase, mitochondrial (Homo sapiens) (UniProt P05091); experiment: Binding affinity to ALDH2 in human MDA-MB-231 cells at 20 uM incubated for 2 to 5 hrs by pull down based LC-MS analysis; assay type: cell-based; details: time 2-5 hrs
# T2 sequence (whole entry): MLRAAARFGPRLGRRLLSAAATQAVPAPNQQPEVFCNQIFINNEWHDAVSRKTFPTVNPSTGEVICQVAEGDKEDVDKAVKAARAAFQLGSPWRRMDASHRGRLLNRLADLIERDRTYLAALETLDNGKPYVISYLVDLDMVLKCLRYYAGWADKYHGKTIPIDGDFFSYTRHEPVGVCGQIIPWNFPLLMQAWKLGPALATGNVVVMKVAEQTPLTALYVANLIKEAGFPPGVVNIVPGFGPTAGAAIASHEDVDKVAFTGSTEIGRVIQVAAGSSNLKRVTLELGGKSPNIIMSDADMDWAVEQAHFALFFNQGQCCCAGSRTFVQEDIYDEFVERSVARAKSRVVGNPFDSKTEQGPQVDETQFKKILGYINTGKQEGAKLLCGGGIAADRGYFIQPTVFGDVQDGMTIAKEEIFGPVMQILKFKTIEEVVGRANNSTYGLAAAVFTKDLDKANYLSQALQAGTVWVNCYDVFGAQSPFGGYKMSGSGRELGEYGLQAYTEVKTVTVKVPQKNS
# MDA-MB-231 [13] = experiment: Induction of cell cycle arrest in human MDA-MB-231 cells assessed as G2/M phase cells at 0.625 uM incubated for 24 hrs by PI/RNase staining based flow cytometric analysis relative to control; assay type: functional
# MDA-MB-231 [14] = experiment: Antiproliferative activity human MDA-MB-231 cells transfected with FABP5 siRNA assessed as reduction in cell viability at 2.5 to 5 uM; assay type: functional, cell-based; details: dose 2.5-5 µM
# MDA-MB-231 [15] = experiment: Induction of cell cycle arrest in human MDA-MB-231 cells assessed as accumulation of cells at G0/G1 phase at 0.625 uM incubated for 24 hrs by PI/RNase staining based flow cytometric analysis relative to control; assay type: functional
# L02 = experiment: Cytotoxicity against human HL7702 cells assessed as inhibition of cell growth incubated for 72 hrs by CCK8 assay; assay type: toxicity, cell-based; details: l02, 72 h
# MDA-MB-231 [16] = experiment: Induction of cell cycle arrest in human MDA-MB-231 cells assessed as accumulation of cells at S phase at 0.156 uM incubated for 24 hrs by PI/RNase staining based flow cytometric analysis relative to control; assay type: functional
# MDA-MB-231 [17] = experiment: Induction of cell cycle arrest in human MDA-MB-231 cells assessed as accumulation of cells at S phase at 0.625 uM incubated for 24 hrs by PI/RNase staining based flow cytometric analysis relative to control; assay type: functional
# Albumin = Albumin (Homo sapiens, UniProt P02768); experiment: Binding affinity to N-terminal 6his/SUMO-tagged human serum albumin expressed in Escherichia coli BL21 (DE3) cells incubated for 2 to 7 hrs by fluorescence based SDS-PAGE analysis; details: time 2-7 hrs
# Sequence of Albumin (P02768 whole entry): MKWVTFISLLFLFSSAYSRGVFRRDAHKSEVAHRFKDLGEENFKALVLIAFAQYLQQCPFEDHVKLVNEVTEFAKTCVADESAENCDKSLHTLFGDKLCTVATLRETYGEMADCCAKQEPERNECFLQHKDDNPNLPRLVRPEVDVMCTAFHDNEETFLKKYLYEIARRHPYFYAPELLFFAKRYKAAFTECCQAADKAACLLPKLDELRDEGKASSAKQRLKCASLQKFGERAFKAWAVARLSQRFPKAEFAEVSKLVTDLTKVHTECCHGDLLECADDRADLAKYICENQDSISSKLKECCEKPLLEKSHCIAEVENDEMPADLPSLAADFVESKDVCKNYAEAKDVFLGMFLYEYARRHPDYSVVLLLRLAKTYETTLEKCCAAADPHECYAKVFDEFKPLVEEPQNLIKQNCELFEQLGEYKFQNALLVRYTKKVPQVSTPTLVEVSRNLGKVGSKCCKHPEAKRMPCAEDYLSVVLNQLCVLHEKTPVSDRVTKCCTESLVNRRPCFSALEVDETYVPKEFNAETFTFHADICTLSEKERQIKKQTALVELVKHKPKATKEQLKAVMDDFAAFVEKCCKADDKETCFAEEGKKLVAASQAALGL
# Sequence of Glutathione S-transferase P (P09211 2-210 limits assumed): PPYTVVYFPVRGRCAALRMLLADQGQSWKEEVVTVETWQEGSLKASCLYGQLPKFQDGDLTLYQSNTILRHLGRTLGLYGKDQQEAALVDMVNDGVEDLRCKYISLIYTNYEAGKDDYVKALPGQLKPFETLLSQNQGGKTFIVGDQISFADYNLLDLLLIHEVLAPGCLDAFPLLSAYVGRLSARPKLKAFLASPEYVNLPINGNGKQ
# Sequence of Fatty acid-binding protein 5 (Homo sapiens) (Q01469 whole entry): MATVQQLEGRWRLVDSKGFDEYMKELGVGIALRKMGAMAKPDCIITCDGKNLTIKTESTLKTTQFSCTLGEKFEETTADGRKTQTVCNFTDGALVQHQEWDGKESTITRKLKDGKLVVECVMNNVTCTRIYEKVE
# Sequence of Alpha-enolase (Homo sapiens) (P06733 whole entry): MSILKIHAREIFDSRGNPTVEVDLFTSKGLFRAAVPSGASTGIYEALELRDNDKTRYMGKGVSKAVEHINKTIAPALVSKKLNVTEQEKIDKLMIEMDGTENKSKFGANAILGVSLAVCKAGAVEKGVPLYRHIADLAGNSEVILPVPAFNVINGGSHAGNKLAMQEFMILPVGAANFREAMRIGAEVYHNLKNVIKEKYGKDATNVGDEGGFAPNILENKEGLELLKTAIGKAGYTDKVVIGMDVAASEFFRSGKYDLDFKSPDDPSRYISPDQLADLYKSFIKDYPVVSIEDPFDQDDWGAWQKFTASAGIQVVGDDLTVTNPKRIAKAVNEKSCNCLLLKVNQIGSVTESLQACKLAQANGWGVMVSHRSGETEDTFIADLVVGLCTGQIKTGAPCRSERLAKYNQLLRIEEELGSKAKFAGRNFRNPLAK
# Sequence of GTPase KRas (Homo sapiens), P01116 [G12C] (P01116 whole entry G12C): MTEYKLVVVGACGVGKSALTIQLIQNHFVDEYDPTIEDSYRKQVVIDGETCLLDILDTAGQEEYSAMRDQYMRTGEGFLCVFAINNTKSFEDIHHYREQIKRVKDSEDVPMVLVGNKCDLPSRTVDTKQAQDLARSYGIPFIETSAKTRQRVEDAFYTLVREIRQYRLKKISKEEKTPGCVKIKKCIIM
compound,measurement,setting,value
C#CCOc1ccc(-c2cc2=O)cc1,Activity,[1],Active
same,Activity,MDA-MB-231 [2],57.98%
same,Activity,[3],Active
same,Activity,MDA-MB-231 [4],16.23%
same,Activity,[5],Active
same,viability at 5 µM,MDA-MB-231 [6],28.9%
same,Activity,[7],Active
same,Activity,[8],Active
same,viability at 5 µM,MDA-MB-231 [9],67.3%
same,Drug uptake,[10],Active
same,Activity,[11],Active
same,Activity,[12],Active
same,Activity,MDA-MB-231 [13],12.03%
same,Activity,MDA-MB-231 [14],Active
same,Activity,MDA-MB-231 [15],71.89%
same,Activity,L02,Non-Toxic
same,Activity,MDA-MB-231 [16],13.79%
same,Activity,MDA-MB-231 [17],14.85%
same,Activity,Albumin,Active
